Measurements taken from patent publication US20250017888A1, “COMPOUNDS FOR TREATING DISEASES ASSOCIATED WITH HYALURONAN OVERPRODUCTION” (THE ROYAL VETERINARY COLLEGE, priority 2021, published 2025).

Key:
[1] = test system: chondrosarcoma cells; experiment: Uptake of flavonoids into chondrosarcoma cells by intracellular fluorescence; assay type: cell-based; conditions: concentration dependence, FIG. 2A
Experimental: Confluent monolayers of chondrosarcoma cells on 96 well microtiter plates were incubated with 100 μM solutions of flavonoids in serum-free Quantum medium. Changes in fluorescence were monitored from the bottom of the wells at excitation and emission wavelengths of 340 nm and 450 nm for xanthohumol and at 440 nm and 530 nm for quercetin, respectively.
Flavonoids are weakly fluorescent in aqueous buffer, but greatly enhance the fluorescence in the presence of proteins (Sengupta, B. and Sengupta, P. K., Biochem. Biophys. Res. Commun., 2002, 299, 400-403). This property was used to follow the uptake of quercetin and xanthohumol into chondrosarcoma cells.

[2] = test system: Str/ort mice; experiment: Gait analysis (treadmill, Digigait) in Str/ort mice; assay type: in vivo, mouse
Experimental: At 10-13 weeks of age, 21 male Str/ort mice (n=7/group) were assigned randomly to vehicle, hylin-betaine and xantho-betaine groups and were treated intraperitoneally 18 weeks with either vehicle (5% DMSO in 95% peanut oil), 50 mg/kg compound of Example 1 (“hylin-betaine”) in 5% DMSO and 95% peanut oil or 50 mg/kg compound of Example 2 (“xantho-betaine”) in 5% DMSO and 95% peanut oil.
Gait was monitored using a treadmill-based video system (DigigaitTM system) in three treatment groups of mice at three time point, week 1, week 9 and week 18 of treatment. The number of mice was 7, 7 and 5 in groups 1, 2 and 3, respectively.
[…] gait descriptors were used for the analyses. Thirty-four descriptors were obtained directly from the software of the system in the 4 limbs (LF: left front; RF: right front; LR: left rear; RR: right rear). All the others (143) were calculated indexes from gait measurements including swing, stance, brake, propel and stride times, stride length, frequency and coefficient of variation, paw area and paw angle and the variability of those two traits, the coefficient of variation of swing duration mid line distance, and minimum and maximum dAdT. The ratios of times were calculated in the 4 limbs: Brake, Propel, and Swing times relative to Stance and Stride times, Stance/Swing and Stance/Stride. In addition, the following additional indexes were considered:
In order to investigate whether there were differences among groups for each descriptor at the three experimental dates, an ANOVA was performed using data corresponding to each descriptor and date. Bonferroni correction was applied to counteract the problem of multiple comparisons.
A t-test analysis was also performed comparing only two groups at a time. In order to assess whether differences between both groups could be due to differences in gait change regarding the initial condition (at 2014/12/23), two sets of analyses were performed for data at 2015/02/18 and 2015/04/14, respectively by using Logistic Regression Analysis. The model included two independent variables: the initial value for each descriptor and the difference between the corresponding value at 2015/02/18 (or 2015/04/14) and the initial value. Bonferroni correction was also applied.

[3] = test system: Str/ort mice; experiment: Micro-CT of tibial trabecular and cortical bone in Str/ort mice; assay type: in vivo, mouse
Experimental: At 10-13 weeks of age, 21 male Str/ort mice (n=7/group) were assigned randomly to vehicle, hylin-betaine and xantho-betaine groups and were treated intraperitoneally 18 weeks with either vehicle (5% DMSO in 95% peanut oil), 50 mg/kg compound of Example 1 (“hylin-betaine”) in 5% DMSO and 95% peanut oil or 50 mg/kg compound of Example 2 (“xantho-betaine”) in 5% DMSO and 95% peanut oil. Micro-CT scanning and analysis were performed as described previously. Briefly, tibiae from vehicle, hylin-betaine and xantho-betaine treated groups were scanned using the Skyscan 1172 (Skyscan, Kontich, Belgium), with x-ray tube operated at 50 kV and 200 Micro-A, 1600 ms exposure time with a 0.5 mm aluminium filter and a voxel size of micro-m 5. The scanning time for each sample was approximately 2 hours. The slices were then reconstructed using NRecon 1.6.9.4 (Skyscan, Kontich, Belgium). 2D/3D analyses were performed using CTAn 1.15.4.0+ version software (Skyscan, Kontich, Belgium). Additionally, 3D visualization and production of colour-coded images of trabecular, cortical and skull bones were conducted using Avizo 9.0.0 software (FEI, Oregon USA). • a. Trabecular analysis: prior to analysis, Micro-CT images were re-oriented in DataViewer 1.5.0 (Skyscan, Kontich, Belgium), such that the cross-section within the transverse plane was perpendicular to the long axis of the bone. Tibial length was measured in CTAn 1.15.4.0+ software using a straight line measuring tool and the appearance of the trabecular ‘bridge’ connecting the two primary spongiosa bone ‘islands’ was set as reference point for analysis of the metaphyseal trabecular bone adjacent to the epiphyseal growth plate. 5% of the total bone length from this point (towards the diaphysis) was utilised for trabecular analysis of the proximal tibia. The trabecular region of interest was drawn freehand using the selection tool of CTAn, a few voxels away from the endocortical surfaces in order to avoid inclusion of remnants of primary spongiosa associated with cortical bone. The selected trabecular regions of interests were analysed using CTAn BatMan software (Skyscan, Kontich, Belgium) and morphometric parameters were recorded. • b. Whole bone cortical analysis: Whole bone analysis was performed on datasets derived from CT scans using BoneJ (version 1.4.0), an ImageJ plugin. Following segmentation, alignment and removal of fibula from the dataset, a minimum bone threshold was selected using a histogram based method in ImageJ which utilises all pixels in a stack to construct a histogram and was further confirmed using ImageJ “threshold function”. The threshold ranged between 22000-22100 and was applied to all datasets to separate higher density bone from soft tissues and air. This threshold was used in “Slice Geometry” function within BoneJ to calculate bone cross sectional area (CSA), second moment of area around the minor axis (Imin), second moment of area around the major axis (Imax), mean thickness determined by local thickness in two dimensions (Ct.Th), ellipticity and resistance to torsion (J). The most proximal (15%) and the most distal portions (25%) of tibial length were excluded from analysis, as these regions include trabecular bone.

[4] = 50 mg/kg intraperitoneally, 18 weeks

COc1cc(O)c(CC=C(C)C)c(O)c1C(=O)/C=C/c1ccc(OC(=O)C[N+](C)(C)C)cc1.[Cl-] [Xantho-betaine, (E)-2-(4-(3-(2,4-dihydroxy-6-methoxy-3-(3-methylbut-2-en-1-yl)phenyl)-3-oxoprop-1-en-1-yl)phenoxy)-N,N,N-trimethyl-2-oxoethanaminium chloride]
uptake into chondrosarcoma cells (intracellular fluorescence) [1]: taken up in a concentration dependent manner | mice that refused to run (drop-out) during the gait studies [2, 4]: 2 mice | percentage of drop-out regarding the total number of runs [2, 4]: 13.3% | distribution of gait data (runs) by treatment group ([2]; 2014 Dec. 23): 4 | distribution of gait data (runs) by treatment group ([2]; 2015 Apr. 14): 5 | distribution of gait data (runs) by treatment group ([2]; 2015 Feb. 18): 4 | effect on all gait descriptors ([2]; any time point, compared with vehicle group): no significant effect | metaphyseal trabecular bone architecture and mass (tibial length, BV/TV, TV, BV, eccentricity, thickness, separation, number) ([3]; 50 mg/kg intraperitoneally, 18 weeks, vs vehicle): do not alter | cortical cross-sectional area (CSA) ([3]; apart from one distal region and a region close to tibio-fibula junction): do not significantly | predicted tibial resistance to torsion (J) ([3]; multiple regions across tibial length, vs vehicle): higher | mean cortical cross-sectional thickness ([3]; multiple regions from −15-60% tibial length, vs vehicle): higher in some regions and lower in other regions | second moment of area around minor axis (Imin) ([3]; vs vehicle, one region proximally): significantly lowers | tibial ellipticity ([3]; vs vehicle, region ˜40-50% along the tibia): greater ellipticity | second moment of area around major axis (Imax) ([3]; vs vehicle, ˜35-55% of tibial length): significantly increased
